# Assay results from ChEMBL document CHEMBL1146870, “N-Tetrahydroquinolinyl, N-quinolinyl and N-isoquinolinyl biaryl carboxamides as antagonists of TRPV1” (Bioorg Med Chem Lett, 2006).
# How the values were obtained:
# [1] = molecular target: T1, Transient receptor potential cation channel subfamily V member 1 (Homo sapiens, UniProt Q8NER1); assay: Antagonist activity against human TRPV1 assessed as inhibition of capsaicin-induced calcium influx by FLIPR assay; assay type: functional
# Homo sapiens = organism: Homo sapiens; assay: Intrinsic clearance in human liver microsomes; assay type: ADME, Microsome
# [2] = molecular target: T1, Transient receptor potential cation channel subfamily V member 1; assay: Antagonist activity against human TRPV1 assessed as inhibition of acid-induced calcium influx by FLIPR assay; assay type: functional
# [3] = molecular target: Transient receptor potential cation channel subfamily V member 1 (Rattus norvegicus, UniProt O35433); assay: Antagonist activity against rat TRPV1 assessed as inhibition of acid-induced calcium influx by FLIPR assay; assay type: functional
# Chain of Transient receptor potential cation channel subfamily V member 1 (Rattus norvegicus, UniProt O35433) (O35433 whole entry): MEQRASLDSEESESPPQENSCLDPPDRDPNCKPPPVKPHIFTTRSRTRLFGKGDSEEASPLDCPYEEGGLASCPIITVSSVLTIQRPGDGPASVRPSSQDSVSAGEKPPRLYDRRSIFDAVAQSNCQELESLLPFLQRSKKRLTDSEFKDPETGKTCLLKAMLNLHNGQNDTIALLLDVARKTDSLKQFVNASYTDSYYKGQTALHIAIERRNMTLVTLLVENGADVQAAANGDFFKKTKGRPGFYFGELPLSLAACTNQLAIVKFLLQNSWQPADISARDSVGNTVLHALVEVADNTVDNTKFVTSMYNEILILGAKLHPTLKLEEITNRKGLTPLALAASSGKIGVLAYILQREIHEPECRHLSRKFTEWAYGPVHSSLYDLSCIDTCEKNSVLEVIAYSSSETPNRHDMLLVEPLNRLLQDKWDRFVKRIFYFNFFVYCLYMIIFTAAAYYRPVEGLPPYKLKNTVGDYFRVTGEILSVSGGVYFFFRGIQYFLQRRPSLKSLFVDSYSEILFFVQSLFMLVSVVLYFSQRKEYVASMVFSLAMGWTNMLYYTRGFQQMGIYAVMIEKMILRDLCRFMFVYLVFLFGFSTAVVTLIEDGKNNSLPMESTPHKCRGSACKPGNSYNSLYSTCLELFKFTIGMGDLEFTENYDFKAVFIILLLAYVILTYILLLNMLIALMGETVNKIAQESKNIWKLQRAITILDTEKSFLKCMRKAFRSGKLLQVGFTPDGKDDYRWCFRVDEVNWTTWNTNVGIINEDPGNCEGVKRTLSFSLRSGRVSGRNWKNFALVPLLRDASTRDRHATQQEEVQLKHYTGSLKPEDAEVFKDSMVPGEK
# Cytochrome P450 2C9 = Cytochrome P450 2C9 (Homo sapiens, UniProt P11712); assay: Inhibition of cytochrome P450 2C9; assay type: ADME
# Chain of Cytochrome P450 2C9 (P11712 whole entry): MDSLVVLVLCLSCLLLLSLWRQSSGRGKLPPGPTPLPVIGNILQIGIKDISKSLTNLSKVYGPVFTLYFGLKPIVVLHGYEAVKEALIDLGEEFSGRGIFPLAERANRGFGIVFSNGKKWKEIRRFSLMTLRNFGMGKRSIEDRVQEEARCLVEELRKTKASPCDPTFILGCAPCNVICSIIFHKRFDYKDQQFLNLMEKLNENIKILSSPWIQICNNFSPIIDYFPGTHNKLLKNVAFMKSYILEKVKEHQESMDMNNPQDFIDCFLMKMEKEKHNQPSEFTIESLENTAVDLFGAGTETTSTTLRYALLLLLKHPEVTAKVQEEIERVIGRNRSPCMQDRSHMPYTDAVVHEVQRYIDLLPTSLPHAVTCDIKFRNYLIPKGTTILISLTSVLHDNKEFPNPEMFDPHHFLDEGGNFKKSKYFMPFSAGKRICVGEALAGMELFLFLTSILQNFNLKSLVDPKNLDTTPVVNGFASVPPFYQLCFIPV
# Cytochrome P450 2C19 = Cytochrome P450 2C19 (Homo sapiens, UniProt P33261); assay: Inhibition of cytochrome P450 2C19; assay type: ADME
# Chain of Cytochrome P450 2C19 (P33261 whole entry): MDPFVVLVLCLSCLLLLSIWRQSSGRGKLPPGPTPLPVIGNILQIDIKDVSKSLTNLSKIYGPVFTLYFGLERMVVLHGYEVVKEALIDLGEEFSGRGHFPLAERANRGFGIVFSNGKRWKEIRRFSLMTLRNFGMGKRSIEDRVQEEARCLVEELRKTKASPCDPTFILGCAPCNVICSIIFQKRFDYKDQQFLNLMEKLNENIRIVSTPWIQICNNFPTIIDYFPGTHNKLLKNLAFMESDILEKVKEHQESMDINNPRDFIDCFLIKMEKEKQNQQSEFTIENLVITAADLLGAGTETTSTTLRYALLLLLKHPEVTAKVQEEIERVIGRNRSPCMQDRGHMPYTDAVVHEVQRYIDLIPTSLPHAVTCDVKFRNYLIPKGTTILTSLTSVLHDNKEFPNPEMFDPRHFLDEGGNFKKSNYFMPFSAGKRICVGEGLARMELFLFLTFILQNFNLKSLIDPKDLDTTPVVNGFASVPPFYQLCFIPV
# Cytochrome P450 2D6 = Cytochrome P450 2D6 (Homo sapiens, UniProt P10635); assay: Inhibition of cytochrome P450 2D6; assay type: ADME
# Chain of Cytochrome P450 2D6 (P10635 whole entry): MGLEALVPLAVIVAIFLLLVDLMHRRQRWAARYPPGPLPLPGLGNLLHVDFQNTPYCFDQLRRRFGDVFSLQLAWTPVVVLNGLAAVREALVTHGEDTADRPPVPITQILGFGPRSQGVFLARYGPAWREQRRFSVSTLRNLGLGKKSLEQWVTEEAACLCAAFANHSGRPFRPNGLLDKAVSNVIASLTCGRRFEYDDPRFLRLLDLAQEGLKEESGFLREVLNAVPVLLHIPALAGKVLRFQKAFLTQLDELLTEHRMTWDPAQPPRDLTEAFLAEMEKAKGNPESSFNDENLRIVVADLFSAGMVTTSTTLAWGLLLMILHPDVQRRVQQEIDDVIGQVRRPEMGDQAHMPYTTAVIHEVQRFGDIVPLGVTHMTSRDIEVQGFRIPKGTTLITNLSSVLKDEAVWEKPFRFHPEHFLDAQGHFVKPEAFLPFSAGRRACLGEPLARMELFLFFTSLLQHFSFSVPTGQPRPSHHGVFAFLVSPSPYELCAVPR
# Cytochrome P450 3A4 = Cytochrome P450 3A4 (Homo sapiens, UniProt P08684); assay: Inhibition of cytochrome P450 3A4; assay type: ADME
# Chain of Cytochrome P450 3A4 (P08684 whole entry): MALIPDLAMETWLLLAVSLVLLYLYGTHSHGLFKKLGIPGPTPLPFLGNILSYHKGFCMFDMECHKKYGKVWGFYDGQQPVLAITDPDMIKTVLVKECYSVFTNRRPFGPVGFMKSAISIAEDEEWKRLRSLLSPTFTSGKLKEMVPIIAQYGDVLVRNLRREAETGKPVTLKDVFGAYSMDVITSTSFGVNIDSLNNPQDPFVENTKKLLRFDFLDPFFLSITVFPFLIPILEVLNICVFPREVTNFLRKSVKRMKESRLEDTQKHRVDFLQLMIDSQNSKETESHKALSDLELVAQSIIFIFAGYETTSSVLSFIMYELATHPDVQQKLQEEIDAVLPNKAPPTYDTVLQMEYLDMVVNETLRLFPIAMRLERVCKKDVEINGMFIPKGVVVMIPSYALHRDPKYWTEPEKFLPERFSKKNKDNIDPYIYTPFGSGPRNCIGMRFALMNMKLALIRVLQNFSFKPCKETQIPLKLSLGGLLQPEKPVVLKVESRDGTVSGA
# Cytochrome P450 1A2 = molecular target: T2, Cytochrome P450 1A2 (Homo sapiens, UniProt P05177); assay: Inhibition of cytochrome P450 1A2; assay type: ADME
# T2 sequence (P05177 whole entry): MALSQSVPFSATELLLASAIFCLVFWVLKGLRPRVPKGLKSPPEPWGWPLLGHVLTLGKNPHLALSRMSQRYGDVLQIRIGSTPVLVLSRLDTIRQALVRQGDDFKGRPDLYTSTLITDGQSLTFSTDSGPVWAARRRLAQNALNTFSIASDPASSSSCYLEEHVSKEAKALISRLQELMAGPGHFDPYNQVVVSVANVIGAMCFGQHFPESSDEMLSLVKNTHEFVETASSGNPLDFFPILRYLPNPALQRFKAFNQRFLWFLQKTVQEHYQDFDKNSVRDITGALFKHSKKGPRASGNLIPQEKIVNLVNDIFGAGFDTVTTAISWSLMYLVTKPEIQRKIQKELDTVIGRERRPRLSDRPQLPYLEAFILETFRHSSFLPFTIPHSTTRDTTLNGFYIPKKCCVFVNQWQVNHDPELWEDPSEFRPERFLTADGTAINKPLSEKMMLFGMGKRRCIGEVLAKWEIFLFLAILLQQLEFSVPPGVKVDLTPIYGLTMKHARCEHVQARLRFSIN
# Cavia porcellus = assay: Inhibition of Freund's complete adjuvant-induced inflammatory hyperalgesia in guinea pig at 30 mg/kg, sc; assay type: functional; conditions: route subcutaneous
# [4] = molecular target: Transient receptor potential cation channel subfamily V member 1 (Rattus norvegicus) (UniProt O35433)
# Chain of Transient receptor potential cation channel subfamily V member 1 (Rattus norvegicus) (O35433 whole entry): as the sequence (O35433 whole entry) above
# Description: Antagonist activity against rat TRPV1 assessed as inhibition of capsaicin-induced calcium influx by FLIPR assay
# [5] = molecular target: Transient receptor potential cation channel subfamily V member 1 (Cavia porcellus) (UniProt Q6R5A3)
# Chain of Transient receptor potential cation channel subfamily V member 1 (Cavia porcellus) (Q6R5A3 whole entry): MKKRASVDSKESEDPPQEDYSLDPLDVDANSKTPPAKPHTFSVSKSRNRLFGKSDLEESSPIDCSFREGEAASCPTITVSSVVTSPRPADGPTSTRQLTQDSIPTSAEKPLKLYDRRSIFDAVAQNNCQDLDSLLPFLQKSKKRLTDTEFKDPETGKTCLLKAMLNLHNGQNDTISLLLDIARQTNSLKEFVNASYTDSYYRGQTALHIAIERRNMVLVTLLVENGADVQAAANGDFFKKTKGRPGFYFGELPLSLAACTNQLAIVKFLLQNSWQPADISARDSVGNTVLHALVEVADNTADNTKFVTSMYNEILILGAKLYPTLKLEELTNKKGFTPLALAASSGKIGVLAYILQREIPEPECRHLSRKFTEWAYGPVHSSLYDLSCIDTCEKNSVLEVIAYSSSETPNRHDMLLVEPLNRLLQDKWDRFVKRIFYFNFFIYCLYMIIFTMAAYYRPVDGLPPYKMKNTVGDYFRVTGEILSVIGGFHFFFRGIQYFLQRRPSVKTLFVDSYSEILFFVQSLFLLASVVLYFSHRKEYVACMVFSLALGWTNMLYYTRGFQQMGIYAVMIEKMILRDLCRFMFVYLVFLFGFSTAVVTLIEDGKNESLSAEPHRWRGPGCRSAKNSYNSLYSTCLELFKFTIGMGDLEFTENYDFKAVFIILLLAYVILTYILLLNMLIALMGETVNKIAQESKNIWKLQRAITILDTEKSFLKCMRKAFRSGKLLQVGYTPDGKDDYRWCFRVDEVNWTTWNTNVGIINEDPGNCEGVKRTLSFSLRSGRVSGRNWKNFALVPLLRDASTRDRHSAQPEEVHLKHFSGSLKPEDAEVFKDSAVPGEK
# Description: Antagonist activity against guinea pig TRPV1 assessed as inhibition of capsaicin-induced calcium influx by FLIPR assay
# T1 sequence (Q8NER1 whole entry): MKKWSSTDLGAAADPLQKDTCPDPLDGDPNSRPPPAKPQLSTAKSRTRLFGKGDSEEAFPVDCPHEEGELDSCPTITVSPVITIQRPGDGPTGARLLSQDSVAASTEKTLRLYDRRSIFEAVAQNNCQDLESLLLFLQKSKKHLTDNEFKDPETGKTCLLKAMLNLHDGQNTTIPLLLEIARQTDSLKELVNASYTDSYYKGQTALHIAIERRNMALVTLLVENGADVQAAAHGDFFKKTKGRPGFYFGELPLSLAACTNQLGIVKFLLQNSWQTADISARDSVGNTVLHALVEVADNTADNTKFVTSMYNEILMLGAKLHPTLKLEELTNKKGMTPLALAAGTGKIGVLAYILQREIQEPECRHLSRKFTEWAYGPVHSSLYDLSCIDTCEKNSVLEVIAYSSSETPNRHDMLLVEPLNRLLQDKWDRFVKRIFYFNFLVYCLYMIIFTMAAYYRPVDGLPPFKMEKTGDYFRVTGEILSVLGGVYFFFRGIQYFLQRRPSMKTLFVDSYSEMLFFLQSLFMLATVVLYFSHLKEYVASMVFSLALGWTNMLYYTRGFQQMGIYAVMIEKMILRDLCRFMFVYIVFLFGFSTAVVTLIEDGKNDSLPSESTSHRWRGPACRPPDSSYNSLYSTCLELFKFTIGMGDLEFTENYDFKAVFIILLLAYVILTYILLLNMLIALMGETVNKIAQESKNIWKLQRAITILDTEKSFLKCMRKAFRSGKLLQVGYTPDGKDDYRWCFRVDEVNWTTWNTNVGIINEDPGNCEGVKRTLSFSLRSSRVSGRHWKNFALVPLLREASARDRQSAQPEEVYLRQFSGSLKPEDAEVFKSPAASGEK
pKb [1],Compound,further results
7,CNS(=O)(=O)c1cccc(-c2ccc(C(=O)Nc3ccc4c(c3)N(C)CCC4)cc2)c1,–
< 6.5,O=C(Nc1cccc2cccnc12)c1ccc(-c2ccccc2)cc1,–
6.9,CN1CCCc2ccc(NC(=O)c3ccc(-c4cncnc4)cc3)cc21,–
7.3,COCCN1CCCc2ccc(NC(=O)c3ccc(-c4ccccc4)cc3)cc21,–
9.4,O=C(Nc1ccc2cccnc2c1)c1ccc(-c2ccccc2)cc1,–
7.8,CN1CCCc2ccc(NC(=O)c3ccc(-c4ccccc4)nc3)cc21,CL (Homo sapiens): 4 mL/min/g
7,CN1CCCc2ccc(NC(=O)c3ccc(-c4ccccc4)s3)cc21,–
7.2,CC(=O)N1CCCc2ccc(NC(=O)c3ccc(-c4ccccc4)cc3)cc21,–
< 6.8,CN1CCCc2ccc(NC(=O)c3cnc(-c4ccccc4)cn3)cc21,–
7.1,CN1CCCc2ccc(NC(=O)c3ccc(-c4ccccc4)cc3Cl)cc21,–
6.9,O=C(Nc1ccc2ncccc2c1)c1ccc(-c2ccccc2)cc1,–
7.5,CN1CCCc2ccc(NC(=O)c3ccc(-c4ccccc4)cc3)cc21,CL (Homo sapiens): 7 mL/min/g
< 6.8,COc1cc(-c2ccccc2)ccc1C(=O)Nc1ccc2c(c1)N(C)CCC2,–
6.9,CN1CCCc2ccc(NC(=O)c3ccc(-n4cccn4)cc3)cc21,–
7.1,CN1CCCc2cc(NC(=O)c3ccc(-c4ccccc4)cc3)ccc21,–
7.8,CN1CCCc2ccc(NC(=O)c3ccc(-c4ccsc4)cc3)cc21,–
< 6.5,O=C(Nc1cccc2ncccc12)c1ccc(-c2ccccc2)cc1,–
7.7,O=C(Nc1ccc2cnccc2c1)c1ccc(-c2ccccc2)cc1,–

pKb [1],Compound,further results
7.4,Cc1cc(C(=O)Nc2ccc3c(c2)N(C)CCC3)ccc1-c1ccccc1,–
6.9,CC(=O)NCCN1CCCc2ccc(NC(=O)c3ccc(-c4ccccc4)cc3)cc21,–
7,CC(=O)c1cccc(-c2ccc(C(=O)Nc3ccc4c(c3)N(C)CCC4)cc2)c1,–
< 6.5,CN1CCCc2c(NC(=O)c3ccc(-c4ccccc4)cc3)cccc21,–
7.7,O=C(Nc1ccc2c(c1)NCCC2)c1ccc(-c2ccccc2)cc1,–
7.6,CN1CCCc2ccc(NC(=O)c3ccc(-c4cccs4)cc3)cc21,–
–,O=C(Nc1ccc2cccnc2c1)c1ccc(-c2ccccc2)nc1,IC50 [2]: 0.00794 µM; IC50 [3]: 0.0251 µM; CL (Homo sapiens): < 5 mL/min/g; IC50 (Cytochrome P450 2C9): > 18 µM; IC50 (Cytochrome P450 2C19): > 18 µM; IC50 (Cytochrome P450 2D6): > 18 µM; IC50 (Cytochrome P450 3A4): > 18 µM; IC50 (Cytochrome P450 1A2): > 18 µM; inhibition in vivo at 30 mg/kg (Cavia porcellus): 32%; pKb [4]: 8.4; pKb [5]: 8.4
< 6.6,CN1CCCc2ccc(NC(=O)c3ccccc3-c3ccccc3)cc21,–
7.2,COCC(=O)N1CCCc2ccc(NC(=O)c3ccc(-c4ccccc4)cc3)cc21,–
7.1,CN1CCCc2ccc(NC(=O)c3ccc(-c4cnccn4)cc3)cc21,–
8,Cc1ccc2ccc(NC(=O)c3ccc(-c4ccccc4)cc3)cc2n1,–
7.7,O=C(Nc1cccc2cnccc12)c1ccc(-c2ccccc2)cc1,–
7.4,O=C(Nc1ccc2ccncc2c1)c1ccc(-c2ccccc2)cc1,–
7.1,CN(C)C(=O)c1ccc(-c2ccc(C(=O)Nc3ccc4c(c3)N(C)CCC4)cc2)cc1,–
7.4,CN(C)CCN1CCCc2ccc(NC(=O)c3ccc(-c4ccccc4)cc3)cc21,–
< 6.8,CN1CCCc2ccc(NC(=O)c3cccc(-c4ccccc4)c3)cc21,–
< 6.3,CN1CCCc2cccc(NC(=O)c3ccc(-c4ccccc4)cc3)c21,–
8.5,O=C(Nc1ccc2ccc(O)nc2c1)c1ccc(-c2ccccc2)cc1,–
